US11235001B2, “RUNX inhibitor” (KYOTO UNIVERSITY, priority 2016, dated 2022)
Like-named read-outs stand apart in the source and are kept apart here.

Key:
[1] = system: BCL11A, TRIM24, p21, BAX, PUMA, MDM2, PARP, cleaved caspase-3; assay: Immunoblotting of p53 pathway and apoptosis proteins in MV4-11 cells; assay type: cell-based, human; settings: 1 μM, 24 hours
Method: Cells were washed twice with ice cold phosphate-buffered saline (PBS) and harvested in protein lysis buffer [50 mM Tris (pH 7.4), 100 mM NaCl, 0.1 mM EDTA, 1 mM phenylmethylsulfonyl fluoride, 1 mM β-glycerophosphate, 2.5 mM sodium pyrophosphate, 1 mM Na3VO4, lx protease inhibitor (Roche) and PhosSTOP (Roche)]. Whole cell extracts were separated by SDS-polyacrylamide gel electrophoresis (SDS-PAGE) and electrotransferred onto polyvinylidene difluoride membranes. Membranes were probed with the following antibodies: anti-Ctip1 antibody (Abcam, ab19487), anti-TRIM24 antibody (Bethyl Laboratories, Inc), anti-RUNX1 antibody (A-2), anti-GAPDH (FL-335), anti-p21 (C-19), anti-Bax (N-20) antibodies (Santa Cruz Biotechnology, Inc.), anti-RUNX2, anti-RUNX3, anti-p53 antibodies (Cell Signaling Technology), anti-CBFβ antibody (FL-182, Santa Cruz Biotechnology, Inc.), anti-cleaved caspase-3 antibody (5A1E, Cell Signaling Technology), anti-PARP antibody (46D11, Cell Signaling Technology). For secondary antibodies, anti-rabbit IgG, or anti-mosue IgG HRP-linked antibodies (Cell Signaling Technology) were used. Blots were detected using Chemi-Lumi One Super (nacalai tesque, Inc.) and ChemiDoc™ XRS+ Imager (Bio-Rad Laboratories, Inc.), as recommended by the manufacturers. Protein levels were quantified with Image Lab Software (Bio-Rad Laboratories, Inc.).
Briefly, MV4-11 cells were treated with 1 μM Chb-M′ or Chb-50 for 24 hours. The treated cells were dissolved in the protein lysis buffer. Whole cell extracts were resolved by SDS-polyacrylamide gel electrophoresis (SDS-PAGE) and transferred onto polyvinylidene difluoride membranes. The membranes were probed with each antibody. Blots were detected and quantified. As a control, the cells treated with DMSO were used.

[2] = system: E-selectin, P-selectin, Tie2, ICAM-1, VCAM-1, Jagged-1; assay: qRT-PCR of adhesion molecule genes in HUVEC; assay type: cell-based, human; settings: 0.5 μM, 1 μM, or 5 μM, 6 hours
THP-1 = settings: THP-1, p53mut(+); for IC50: 48 hours
[3] = system: c-kit, phospho-c-Kit, AKT, phosphorylated AKT, Mitf; assay: Western blot of KIT signalling, HMC-1.2 mast cells; assay type: cell-based, human; settings: HMC-1.2, 10 μM, 18 hours
Method: Cells were washed twice with ice cold phosphate-buffered saline (PBS) and harvested in protein lysis buffer [50 mM Tris (pH 7.4), 100 mM NaCl, 0.1 mM EDTA, 1 mM phenylmethylsulfonyl fluoride, 1 mM β-glycerophosphate, 2.5 mM sodium pyrophosphate, 1 mM Na3VO4, lx protease inhibitor (Roche) and PhosSTOP (Roche)]. Whole cell extracts were separated by SDS-polyacrylamide gel electrophoresis (SDS-PAGE) and electrotransferred onto polyvinylidene difluoride membranes. […] Blots were detected using Chemi-Lumi One Super (nacalai tesque, Inc.) and ChemiDoc™ XRS+ Imager (Bio-Rad Laboratories, Inc.), as recommended by the manufacturers. Protein levels were quantified with Image Lab Software (Bio-Rad Laboratories, Inc.).
To the LAD2 cell line and the HMC-1.2 cell line, 10 μM Chb-M′ was administered. After culturing the cells for 18 hours, extracts were obtained from the cells, and the protein expression levels of c-kit, phospho-c-Kit, AKT, phosphorylated AKT, Mitf, and GAPDH were analyzed by the Western blot analysis (see the above-described “Immunoblotting”) using different antibodies. […]

MV4-11 cells = assay: Xenograft AML mouse model (MV4-11); assay type: in vivo; settings: NOG mice with MV4-11, day 14
c-kit = assay: FACS of cell surface c-kit, LAD2 mast cells; assay type: cell-based, human; settings: LAD2 (wild-type c-kit), 10 μM, 18-hour treatment; DMSO 68.3
Excerpt: Mast cells cause symptoms or diseases such as allergic reaction by receptor-mediated activation. In addition, c-kit signal transduction enhances release of chemical mediators from stimulated mast cells. The effect of the RUNX inhibitor on human mast cells was examined. As human mast cells, a LAD2 cell line (expressing wild-type c-kit) and an HMC-1.2 cell line (expressing mutated c-kit) were used. The HMC-1.2 cell line has KIT D816V mutation and V560G mutation. Wild-type c-kit is a SCF receptor and the cell proliferation is dependent on SCF. Accordingly, regarding the LAD2 cell line, 50 ng/ml of SCF was administered and experiments were performed as described below. The HMC-1.2 cell line has a mutation in c-kit and the cell proliferation is independent of SCF. Accordingly, regarding the HMC-1.2 cell line, SCF was not administered and experiments were performed as described below. As the RUNX inhibitor, Chb-M′ was used. […]
To the LAD2 cell line, 10 μM Chb-M′ was administered. After 3 hours and 18 hours, different antibodies were used for immunostaining of c-kit expressed on the cell surface, and the expression levels were analyzed by FACS (fluorescence-activated cell sorter). […] After 18 hours, different antibodies were used for immunostaining of c-kit expressed on the cell surface, and the expression levels were analyzed by FACS. […]

For CN(C)CCCNC(=O)c1cc(NC(=O)c2cc(NC(=O)c3cc(NC(=O)c4cc(NC(=O)CCCNC(=O)c5nc(NC(=O)c6nc(NC(=O)c7cc(NC(=O)c8nc(NC(=O)CCNC(=O)CCCc9ccc(N(CCCl)CCCl)cc9)cn8C)cn7C)cn6C)cn5C)cn4C)cn3C)cn2C)cn1C [Chb-M′], the “Cleaved form of PARP and cleaved caspase-3 (apoptosis)” value [1] was “emergence”, the “Protein expression levels of p53 and downstream proteins (p21, BAX)” value [1] was “increased” and the “Protein expression levels of suppressors of p53 (BCL11A and TRIM24)” value [1] was “reduced”. The “E-selectin, P-selectin, and VCAM-1 mRNA levels” value [2] was “markedly suppressed”, the “CI (Fa = 0.5)” value (THP-1; concomitant use of Chb-M′ and PRIMA-1, Chou-Talalay, CI<1 synergism) was 0.249 and the IC50 (THP-1; read-out: IC50 (μM) of Chb-M′ in concomitant use with PRIMA-1 (5 μM), with 5 μM PRIMA-1) was 0.5 µM. For the same molecule, the IC50 (THP-1; read-out: IC50 (μM) of Chb-M′ single agent administration) was greater than 100 µM, the “Expression levels of c-kit and phospho-c-Kit” value [3] was “suppressed” and the “pAKT amount of protein” value [3] was “slight decrease”. The “H&E staining of bone marrow” value (MV4-11 cells) was “homogeneity was lost”, the “hCD45 staining of bone marrow (human leukemia cells)” value (MV4-11 cells) was “most of the brown parts lost” and the “MFI (mean fluorescent intensity) of surface c-kit” value (c-kit) was 48.8.
